# Measured values published in patent US20080221161A1, “HETEROCYCLIC MODULATORS OF TGR5 FOR TREATMENT OF DISEASE” (KALYPSYS, INC., priority 2007, published 2008).
# Molecular target: T1, human TGR5 (Homo sapiens, UniProt Q8TDU6)
# T1 construct: expressed in transfected cells; host or cells: HEK-293 cells, stably transfected (pcDNA 3.1, Fugene6, geneticin selection)
# T1 sequence (Q8TDU6 1-330): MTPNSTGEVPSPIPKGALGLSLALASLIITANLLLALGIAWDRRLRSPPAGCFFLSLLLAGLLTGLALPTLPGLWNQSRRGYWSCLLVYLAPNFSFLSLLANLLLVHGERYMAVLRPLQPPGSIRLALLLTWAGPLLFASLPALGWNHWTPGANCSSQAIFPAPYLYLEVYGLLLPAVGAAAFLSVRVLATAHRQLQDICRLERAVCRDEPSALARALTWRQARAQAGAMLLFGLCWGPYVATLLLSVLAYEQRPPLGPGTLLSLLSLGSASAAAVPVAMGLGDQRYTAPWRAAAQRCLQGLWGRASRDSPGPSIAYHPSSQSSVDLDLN
# Assay: cAMP production assay in HEK293-TGR5 cells
# Assay type: cell-based
# Conditions: HEK293 cells stably expressing human TGR5; 30 minutes stimulation; LANCE cAMP TR-FRET; read-out: cAMP Production in 293-TGR5 Cells EC50
row,SMILES,EC50 [µM]
1,"COc1cc(OC)c2cc(CNCc3ccc(C(F)(F)F)cc3)c(-c3ccsc3)nc2c1 [Example 53, 1-(5,7-Dimethoxy-2-(thiophen-3-yl)quinolin-3-yl)-N-(4-(trifluoromethyl)benzyl)methanamine]",< 10
2,"FC(F)(F)Oc1ccc2cc(CNCCc3ccc(Cl)cc3)c(-c3cccnc3)nc2c1 [Example 14, 2-(4-Chlorophenyl)-N-((2-(pyridin-3-yl)-7-(trifluoromethoxy)quinolin-3-yl)methyl)ethanamine]",> 10
3,"COc1ccc2cc(CNCc3ccc(F)cc3F)c(-c3ccncc3)nc2c1 [Example 87, N-(2,4-Difluorobenzyl)-1-(7-methoxy-2-(pyridin-4-yl)quinolin-3-yl)methanamine]",< 10
4,"COc1ccc2cc(CNc3ccccc3)c(-c3ccsc3)nc2c1 [Example 68, N-((7-Methoxy-2-(thiophen-3-yl)quinolin-3-yl)methyl)aniline]",< 10
5,"FC(F)(F)c1ccc(CNCc2cc3ccccc3nc2-c2ccsc2)cc1 [Example 28, 1-(2-(Thiophen-3-yl)quinolin-3-yl)-N-(4-(trifluoromethyl)benzyl)-methanamine]",< 10
6,"COc1ccc2cc(CNC(=O)c3ccc(C(F)(F)F)cc3)c(-c3ccsc3)nc2c1 [Example 17, N-((7-methoxy-2-(thiophen-3-yl)quinolin-3-yl)methyl)-4-(trifluoromethyl)benzamide]",> 10
7,"COc1ccc2cc(CNCCc3ccccn3)c(-c3ccncc3)nc2c1 [Example 80, N-((7-Methoxy-2-(pyridin-4-yl)quinolin-3-yl)methyl)-2-(pyridin-2-yl)ethanamine]",> 10
8,"COc1ccc2cc(CN(CCc3ccc(Cl)cc3)C(C)=O)c(-c3ccsc3)nc2c1 [Example 32, N-(4-Chlorophenethyl)-N-((7-methoxy-2-(thiophen-3-yl)quinolin-3-yl)methyl)acetamide]",> 10
9,"COc1ccc2cc(CNCc3ccncc3)c(-c3ccsc3)nc2c1 [Example 70, 1-(7-Methoxy-2-(thiophen-3-yl)quinolin-3-yl)-N-(pyridin-4-ylmethyl)methanamine]",> 10
10,"COc1ccc2cc(CNCCc3ccc(Cl)cc3)c(-c3cccnc3)nc2c1 [Example 7, 2-(4-Chlorophenyl)-N-((7-methoxy-2-(pyridin-3-yl)quinolin-3-yl)methyl)ethanamine]",< 10
11,"COc1ccc2cc(CNCc3ccc(C(F)(F)F)cc3)c(-c3ccncc3)nc2c1 [Example 23, 1-(7-Methoxy-2-(pyridin-4-yl)quinolin-3-yl)-N-(4-(trifluoromethyl)benzyl)methanamine]",< 10

# Further lines, results first:
row,EC50 [µM],SMILES
1,> 10,"CC(=O)Nc1ccc2cc(CNCCc3ccc(Br)cc3)c(-c3ccsc3)nc2c1 [Example 142, N-(3-((4-bromophenethylamino)methyl)-2-(thiophen-3-yl)quinolin-7-yl)acetamide]"
2,> 10,"COc1ccc2cc(CNCc3ccc(C(F)(F)F)cc3)c(-c3ccsc3)nc2c1 [Example 1, 1-(7-methoxy-2-(thiophen-3-yl)quinolin-3-yl)-N-(4-(trifluoromethyl)benzyl)methanamine]"
3,> 10,"Oc1ccc2cc(CNCCc3ccc(Cl)cc3)c(-c3ccoc3)nc2c1 [Example 118, 3-((4-Chlorophenethylamino)methyl)-2-(furan-3-yl)quinolin-7-ol]"
4,> 10,"FC(F)(F)Oc1ccc2cc(CNCCc3ccc(Cl)cc3)c(-c3ccsc3)nc2c1 [Example 13, 2-(4-Chlorophenyl)-N-((2-(thiophen-3-yl)-7-(trifluoromethoxy)quinolin-3-yl)methyl)ethanamine]"
5,> 10,"COc1ccc2cc(CCNCCc3ccc(Br)cc3)c(-c3ccsc3)nc2c1 [Example 102, N-(4-bromophenethyl)-2-(7-methoxy-2-(thiophen-3-yl)quinolin-3-yl)ethanamine]"
6,< 10,"Oc1ccc2cc(CNCCc3ccc(Br)cc3)c(-c3ccncc3)nc2c1 [Example 96, 3-((4-Bromophenethylamino)methyl)-2-(pyridin-4-yl)quinolin-7-ol]"
7,< 10,"C[C@@H](NCc1cc2ccc(O)cc2nc1-c1ccsc1)c1ccc(Br)cc1 [Example 134, (R)-3-((1-(4-Bromophenyl)ethylamino)methyl)-2-(thiophen-3-yl)quinolin-7-ol]"
8,> 10,"Oc1cc2nc(-c3ccsc3)c(CNCCc3ccc(Br)cc3)cc2cc1F [Example 147, 3-((4-Bromophenethylamino)methyl)-6-fluoro-2-(thiophen-3-yl)quinolin-7-ol]"
9,< 10,"Sc1ccc2cc(CNCCc3ccc(Br)cc3)c(-c3ccsc3)nc2c1 [Example 114, 3-((4-Bromophenethylamino)methyl)-2-(thiophen-3-yl)quinoline-7-thiol]"
10,> 10,"COc1ccc2cc(CNCCc3ccc(Cl)cc3)c(-c3ccoc3)nc2c1 [Example 117, 2-(4-Chlorophenyl)-N-((2-(furan-3-yl)-7-methoxyquinolin-3-yl)methyl)ethanamine]"
11,> 10,"Cc1c(CNCCc2ccc(Br)cc2)c(-c2ccsc2)nc2cc(O)ccc12 [Example 120, 3-((4-Bromophenethylamino)methyl)-4-methyl-2-(thiophen-3-yl)quinolin-7-ol]"
12,> 10,"FC(F)(F)Oc1ccc2cc(CNCCc3ccc(Br)cc3)c(-c3cccnc3)nc2c1 [Example 16, 2-(4-Bromophenyl)-N-((2-(pyridin-3-yl)-7-(trifluoromethoxy)quinolin-3-yl)methyl)ethanamine]"
13,< 10,"NC(=O)c1ccc2cc(CNCCc3ccc(Br)cc3)c(-c3ccsc3)nc2c1 [Example 139, 3-((4-Bromophenethylamino)methyl)-2-(thiophen-3-yl)quinoline-7-carboxamide]"
14,> 10,"Nc1ccc2cc(CNCCc3ccc(Br)cc3)c(-c3ccsc3)nc2c1 [Example 128, 3-((4-Bromophenethylamino)methyl)-2-(thiophen-3-yl)quinolin-7-amine]"

# Tested on: mice fed high fat diet (HFD)
# Assay: not given
# Conditions: mice fed HFD containing 0.5% cholic acid vs HFD alone; cited from earlier work
SMILES,Food intake,Weight gain
C[C@H](CCC(=O)O)[C@H]1CC[C@H]2[C@@H]3[C@H](O)C[C@@H]4C[C@H](O)CC[C@]4(C)[C@H]3C[C@H](O)[C@]12C [cholic acid],no difference between the two groups,gained less weight than control mice on HFD alone
